From publication PMC12174897, “Hitting Two Birds With One Stone: Dual Modulation of Brain Carbonic Anhydrases and Histone Deacetylases Boosts Memory Consolidation” (Archiv Der Pharmazie, 2025)

Assays:
Male C57Bl6 mice = test: Novel object recognition (NOR) paradigm, memory consolidation; type: in vivo; set-up: key to Discrimination index (DI): DI = (tN − tF)/(tN + tF); novel vs familiar exploration time; conditions: for Discrimination index (DI): 5 µL i.c.v., retention test 24 h, vehicle −0.057 ± 0.069; for percentage of time spent exploring familiar vs novel object, retention test: 5 µL i.c.v. immediately after acquisition, retention test 24 h later
Description: This set of experiments was designed to evaluate the impact of single reference compounds (D‐Phe and 19) as well as the dual acting (12 and 14) on recognition memory. These compounds were administered directly into the brain lateral ventricles immediately after the acquisition session to investigate their impact specifically on memory consolidation. […] Such a design avoids the use of amnestic drugs that could interfere with data interpretation and represents an advantage when studying the procognitive potential of novel compounds. The dose range and administration route were also chosen based on previous reports showing that the procognitive effects of CA and HDAC modulators rely on their action on centrally and not peripherally expressed enzymes. Moreover, the injection of the tested compounds directly into the lateral ventricles (i.c.v.) consents widespread drug distribution in the brain and at the same time minimizes potential interference of peripheral phenomena such as barriers crossing, protein binding, drug metabolism, that are highly influenced by specific drug characteristics such as size, solubility, charge. Therefore, the i.c.v. route represents an advantage in studies comparing the potency of compounds by ensuring precise control of drug concentrations in the target organ and excluding confounding factors related to peripheral pharmacokinetic mechanisms.
Figure 5 Dual modulation of CAs and HDACs potently boost recognition memory in mice. (A) Schematic drawing showing the sequence of the behavioral procedures: immediately after the acquisition phase mice received infusions (5 µL) of solutions containing either vehicle, the CA activator D‐Phe, the HDAC inhibitor 19 dual acting compounds 12 and 14 at 0.5, 5, or 50 nmol/µL concentrations. The retention test was performed 24 h later. (B) Percentages of time spent exploring the familiar (F) or novel (N) objects during the retention test. The dashed line indicates a theoretical means of 50%. Statistically significant differences determined by two‐way ANOVA and Bonferroni's MCT: ****p < 0.0001 F versus N. (C) Discrimination indexes calculated with the formula DI = (tN tF)/(tN + tF). Statistically significant differences determined by one‐way ANOVA and Bonferroni's MCT: *p < 0.05; **p < 0.01 versus vehicle‐treated group. In both graphics, data are expressed either as individual data points for each animal (scattered plot) znc means ± SEM represented by bar graphs. N = 6–9 animals by experimental group.
Male C57Bl6 mice were submitted to the stereotaxic surgery to implant a guide cannula into the brain lateral ventricles as described above. One week after the surgery, their behavior was assessed in an open‐field arena (60 × 70 cm and 30 cm high) constructed in white acrylic Plexiglass and placed in a sound‐attenuated room. The detailed experimental procedure is already published. The NOR protocol consists of three sessions: habituation, acquisition, and retention test separated by 24 h intertrial intervals. During habituation, the animals freely explored the empty arena for 10 min. Twenty‐four hours later, each animal was placed in the same position and facing the same direction into the test arena in the presence of two identical objects (gray plastic shapes such as cubes, cylinders, or pyramids 8 cm high) and left free to explore it for 5 min. […] The retention test session was performed 24 h after acquisition, during which, each mouse was again placed in the test arena for 5 min in the presence of one of the familiar object and a novel object. The position of the new objects (left/right) was randomized to prevent bias from order or place preference.

hCA I = biological target: T1, hCA I (Homo sapiens, UniProt P00915); test: stopped-flow CO2 hydrase assay, CA activation; type: biochemical; conditions: for K A hCA I: activation constant, mean from three assays, errors ±5%–10%
T1 construct: purchased
T1 sequence (P00915 whole entry): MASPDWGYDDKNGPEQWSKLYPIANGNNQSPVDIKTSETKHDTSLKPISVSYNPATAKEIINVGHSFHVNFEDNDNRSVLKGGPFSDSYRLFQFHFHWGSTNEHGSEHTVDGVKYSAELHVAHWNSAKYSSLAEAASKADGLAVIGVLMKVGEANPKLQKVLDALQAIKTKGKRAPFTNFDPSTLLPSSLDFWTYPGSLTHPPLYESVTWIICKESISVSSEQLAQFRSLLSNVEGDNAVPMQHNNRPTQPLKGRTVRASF

hCA IX = biological target: T2, hCA IX (Homo sapiens, UniProt Q16790); test: stopped-flow CO2 hydrase assay, CA activation; type: biochemical; conditions: activation constant; mean from three assays, errors ±5%–10%
T2 construct: made in house

hCA VII = biological target: T3, hCA VII (Homo sapiens, UniProt P43166); test: stopped-flow CO2 hydrase assay, CA activation; type: biochemical; conditions: for K A hCA VII: activation constant, mean from three assays, errors ±5%–10%
T3 construct: made in house
T3 sequence (P43166 whole entry): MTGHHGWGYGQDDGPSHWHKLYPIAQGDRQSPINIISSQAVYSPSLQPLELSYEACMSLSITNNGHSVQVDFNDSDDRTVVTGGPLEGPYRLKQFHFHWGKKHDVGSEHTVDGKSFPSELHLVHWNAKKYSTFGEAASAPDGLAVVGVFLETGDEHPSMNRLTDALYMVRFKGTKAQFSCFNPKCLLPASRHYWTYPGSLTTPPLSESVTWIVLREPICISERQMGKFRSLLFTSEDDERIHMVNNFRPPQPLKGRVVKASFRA
Description: (§1) . The potencies were reported as K A values in Table 1 and compared with the reference compound D‐Phe. AC50 curves are reported in the Supporting Information.
(§2) . The uncatalyzed rates were determined in the same manner and subtracted from the total observed rates. Stock solutions of the inhibitor (0.1 mM) were prepared in distilled–deionized water and dilutions up to 0.01 nM were done thereafter with the assay buffer. Inhibitor and enzyme solutions were preincubated together for 15 min at r.t. before the assay, to allow for the formation of the E–I complex. The inhibition constants were obtained by nonlinear least‐squares methods using PRISM 3 and the Cheng‐Prusoff equation [41] and represent the mean from at least three different determinations. Apart from commercial hCAs I and II, all CA isoforms were recombinant proteins obtained in house, as reported earlier.
as §2, with “prior to” for “before”, “least-squares” for “least‐squares”, “Cheng-Prusoff” for “Cheng‐Prusoff”, “[2]” for “[41]”

hCA VA = biological target: T4, hCA VA (Homo sapiens, UniProt P35218); test: stopped-flow CO2 hydrase assay, CA activation; type: biochemical; conditions: for K A hCA VA: activation constant, mean from three assays, errors ±5%–10%
T4 construct: made in house
T4 sequence (P35218 39-305): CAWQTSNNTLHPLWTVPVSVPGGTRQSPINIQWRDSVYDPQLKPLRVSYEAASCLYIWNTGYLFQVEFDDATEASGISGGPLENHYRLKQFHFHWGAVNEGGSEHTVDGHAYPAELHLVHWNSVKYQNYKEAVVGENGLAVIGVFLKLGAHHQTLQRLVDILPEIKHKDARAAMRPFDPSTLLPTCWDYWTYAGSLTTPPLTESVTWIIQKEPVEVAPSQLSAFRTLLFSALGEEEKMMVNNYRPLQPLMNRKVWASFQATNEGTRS
Description: as §1, §2
as §2, with “prior to” for “before”, “least-squares” for “least‐squares”, “Cheng-Prusoff” for “Cheng‐Prusoff”, “[2]” for “[41]”

hCA IV = biological target: T5, hCA IV (Homo sapiens, UniProt P22748); test: stopped-flow CO2 hydrase assay, CA activation; type: biochemical; conditions: for K A hCA IV: activation constant, mean from three assays, errors ±5%–10%
T5 construct: made in house
T5 sequence (P22748 19-312): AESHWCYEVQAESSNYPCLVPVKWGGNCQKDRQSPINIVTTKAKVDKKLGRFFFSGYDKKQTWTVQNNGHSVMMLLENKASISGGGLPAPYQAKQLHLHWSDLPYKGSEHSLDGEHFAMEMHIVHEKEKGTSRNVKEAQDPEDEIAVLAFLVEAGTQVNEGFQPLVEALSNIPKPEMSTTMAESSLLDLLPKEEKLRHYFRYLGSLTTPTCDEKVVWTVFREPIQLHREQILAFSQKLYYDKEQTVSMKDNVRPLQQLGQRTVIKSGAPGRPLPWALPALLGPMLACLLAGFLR
Description: as §1, §2
as §2, with “prior to” for “before”, “least-squares” for “least‐squares”, “Cheng-Prusoff” for “Cheng‐Prusoff”, “[2]” for “[41]”

hCA II = biological target: T6, hCA II (Homo sapiens, UniProt P00918); test: stopped-flow CO2 hydrase assay, CA activation; type: biochemical; conditions: for K A hCA II: activation constant, mean from three assays, errors ±5%–10%
T6 construct: purchased

[1] = test system: CA activity in cortical and hippocampal brain homogenates; test: Ex vivo CA activity in brain homogenates after i.c.v. infusion (stopped-flow); conditions: 50 nmol/µL, 5 µL i.c.v., 30 min after infusion; vehicle = 100%
Description: (§4) Specifically, mice were euthanized 30 min after the i.c.v. infusion, their brains were collected, and hippocampi and frontal cortices were immediately dissected on ice and then individually homogenized in 1 mL of ice‐cold 20 mM Hepes buffer (pH 7.5).
The overall catalytic activity of CAs (K cat) of each individual preparation was measured with a stopped flow spectrophotometric method monitoring the physiological CO2 hydration reaction catalyzed by these enzymes [30]
Animals were killed 30 min after drug infusion, and the brain structures were immediately dissected on ice and homogenized. CA activity was measured with a stopped‐flow method. The mean CA activity measured in the group of control mice treated with vehicle was taken as 100%, the activities measured for animals treated with compounds were normalized to this value. Data are expressed as means ± S.E.M. of six–nine mice per experimental group. One‐way ANOVA and Bonferroni MCT, **p < 0.01 versus vehicle.
In the infusion days, a stainless‐steel injection micro‐needle (outer diameter 0.25 mm) connected through a polyethylene catheter to a 1000 µL Hamilton precision syringe was inserted into the cannulae previously implanted and lowered into the lateral cerebral ventricle (DV 2.4 mm). Then, 5 µL of a solution containing the testing compounds or vehicle were delivered using an infusion pump at 1 µL/min flow. The needle was left in place for one additional minute after each infusion to avoid efflux. Thirty minutes after drug injections, the animals were euthanized, their brain immediately removed, the cortices and hippocampi were rapidly dissected on ice, weighted, and stored at –80°C until use.
Animals pertaining to the control group received infusions of vehicle (physiological saline containing 1% DMSO (v/v)).
Brain tissues were homogenized in 1.0 mL of ice‐cold 20 mM Hepes buffer (pH 7.5). After centrifugation at 20,000g for 30 min, an Applied Photophysics stopped‐flow instrument was used for assaying the CA‐catalyzed CO2 hydration activity from the samples as previously described [23, 34]. […] The mean CA activity determined in the brain samples from the control group of mice treated with vehicle was set as 100% and all the individual calculated values were then expressed as a percentage of controls.

[2] = test system: HDAC activity of HeLa nuclear extract; test: Fluor de Lys-Green HDAC assay kit, HDAC inhibition; type: biochemical
Description: (§3) HeLa nuclear extract, rich in HDAC activity, is included with the kit. Trichostatin A solution was used as a positive control and model inhibitor. Plates were read with excitation at 380 nm and emission at 440 nm on a TECAN Spark multimode microplate reader. Histone deacetylase activity was measured according to the manufacturer's instructions.
as §3, with “Spark®” for “Spark”, “to” for “to the”

[3] = test system: HDAC activity in hippocampal and cortical brain homogenates; test: Ex vivo HDAC residual activity in brain homogenates after i.c.v. infusion (fluorometric); conditions: 50 nmol/µL, 5 µL i.c.v., 30 min after infusion; vehicle = 100%
Description: as §4
Animals were killed 30 min after drug infusion, and the brain structures were immediately dissected on ice and homogenized. HDAC activity was measured with the fluorometric method. The HDAC mean activity of the control group mice was taken as 100%, % of the activities measured for animals treated with compounds were normalized to this value. Data are expressed as means ± S.E.M. of 6–13 mice per experimental group. One‐way ANOVA and Bonferroni MCT, ****p < 0.0001 versus vehicle‐treated group. […]
The residual enzymatic activity in brain tissues was measured using Fluor de Lys‐Green HDAC fluorometric activity assay kit purchased from Enzo Life Sciences (Farmingdale, NY). […] Measurements were performed using a TECAN Spark multimode microplate reader, set to a wavelength of 280 nm. Once the absorbance was measured, the concentration of the enzyme HDAC contained in the brain homogenates was calculated according to Lambert‐Beer's law. […] Fluorescence was measured at 380 nm and detected at 440 nm. Each test included a blank as a reference for minimal fluorescence, containing only buffer and substrate, thus lacking any protein component [49, 50]. […]

[4] = mean from three assays, errors 5%–10%
[5] = supplement InChI file, given as KI

Nc1ccccc1NC(=O)c1ccc(NC(=O)NCCc2c[nH]cn2)cc1.O=C(O)C(F)(F)F [Compound 12, 2‐(4‐{3‐[2‐(1H‐imidazol‐4‐yl)ethyl]ureido}benzamido)benzenaminium 2,2,2‐trifluoroacetate]
Discrimination index (DI) (Male C57Bl6 mice; 0.5 nmol/µL): −0.077 ± 0.078 | Discrimination index (DI) (Male C57Bl6 mice; 5 nmol/µL): 0.288 ± 0.110 | percentage of time spent exploring familiar vs novel object, retention test (Male C57Bl6 mice; 5 nmol/μL): spent significantly more time exploring the novel object | Discrimination index (DI) (Male C57Bl6 mice; 50 nmol/µL): 0.313 ± 0.173 | percentage of time spent exploring familiar vs novel object, retention test (Male C57Bl6 mice; 50 nmol/μL): spent significantly more time exploring the novel object | K A hCA I (hCA I): 75.4 µM | K A hCA IX (hCA IX): 68.8 µM | K A hCA VII (hCA VII): 32.0 µM | K A hCA VA (hCA VA): > 10000 µM | K A hCA IV (hCA IV): 23.0 µM | K A hCA II (hCA II): 66.8 µM | CA activity (%) in cortical homogenates versus vehicle [1]: significantly increased | CA activity (%) in hippocampal homogenates versus vehicle [1]: significantly increased | EC50 [2, 4]: 2.8 µM

Nc1cc(F)ccc1NC(=O)c1ccc(NC(=O)NCCc2c[nH]cn2)cc1.[O-][Cl+3]([O-])([O-])O.[O-][Cl+3]([O-])([O-])O [Compound 14, 4‐{3‐[2‐(1H‐Imidazol‐4‐yl)Ethyl]Ureido}‐N‐(2‐Amino‐4‐Fluorophenyl)Benzamide Diperchlorate]
Discrimination index (DI) (Male C57Bl6 mice; 0.5 nmol/µL): −0.026 ± 0.274 | Discrimination index (DI) (Male C57Bl6 mice; 5 nmol/µL): 0.317 ± 0.132 | percentage of time spent exploring familiar vs novel object, retention test (Male C57Bl6 mice; 5 nmol/μL): spent significantly more time exploring the novel object | Discrimination index (DI) (Male C57Bl6 mice; 50 nmol/µL): 0.224 ± 0.223 | percentage of time spent exploring familiar vs novel object, retention test (Male C57Bl6 mice; 50 nmol/μL): spent significantly more time exploring the novel object | fold more potent activator of hCA I (hCA I; K A of 14 compared with 12): 1.4 fold | K A hCA I (hCA I): 53.8 µM | K A hCA IX (hCA IX): > 10000 µM | fold more potent activator of hCA VII (hCA VII; K A of 14 compared with 12): 1.2 fold | K A hCA VII (hCA VII): 26.1 µM | K A hCA VA (hCA VA): 37.9 µM | K A hCA IV (hCA IV): 49.1 µM | fold more potent activator of hCA II (hCA II; K A of 14 compared with 12): 1.3 fold | K A hCA II (hCA II): 49.5 µM | CA activity (%) in cortical homogenates versus vehicle [1]: significantly increased | CA activity (%) in hippocampal homogenates versus vehicle [1]: significantly increased | EC50 [2, 4]: 5.3 µM

Nc1ccccc1NC(=O)c1ccc(NCC(=O)NCCc2ccccc2)cc1 [Compound 19, N‐(2‐Aminophenyl)‐4‐{[2‐Oxo‐2‐(Phenethylamino)Ethyl]Amino}Benzamide]
percentage of time spent exploring familiar vs novel object, retention test (Male C57Bl6 mice; 50 nmol/μL): promnesic effect | K A hCA VII (hCA VII): > 10000 µM | activation constant KA (hCA VII; [5]): > 10 mM | K A hCA VA (hCA VA): > 10000 µM | KA (activation constant) (hCA VA; [5]): > 10 mM | K A hCA IV (hCA IV): > 10000 µM | activation constant KA (hCA IV; [5]): > 10 mM | HDAC residual activity (%) in cortical homogenates versus vehicle [3]: significant reduction | HDAC residual activity (%) in hippocampal homogenates versus vehicle [3]: significant reduction | CA activity (%) in cortical homogenates versus vehicle [1]: no differences were observed | CA activity (%) in hippocampal homogenates versus vehicle [1]: no differences were observed | EC50 [2, 4]: 14.2 µM

N[C@H](Cc1ccccc1)C(=O)O [D‐Phe, reference compound]
percentage of time spent exploring familiar vs novel object, retention test (Male C57Bl6 mice; 50 nmol/μL): promnesic effect | K A hCA I (hCA I): 86.0 µM | K A hCA IV (hCA IV): 49.3 µM | K A hCA II (hCA II): 0.035 µM | CA activity (%) in cortical homogenates versus vehicle [1]: significantly increased | CA activity (%) in hippocampal homogenates versus vehicle [1]: significantly increased

CC(/C=C/C(=O)NO)=C\[C@@H](C)C(=O)c1ccc(N(C)C)cc1 [Trichostatin A, reference compound]
EC50 ([2]; reference inhibitor): 0.0018 µM
